Data on one compound can be found in patent US7781580B2, “Stilbene derivatives as new cancer therapeutic agents” (Virginia Commonwealth University, priority 2007, dated 2010).

The subject of data set [1] is tubulin (colchicine site). As to the kind of experiment: [3H]-colchicine competition for binding tubulin. Conditions: 20 min, 37° C. The method, then: FIG. 3a-d. […] (a) Effect of stilbene 4a. Pure tubulin was incubated with various concentrations of stilbene 4a, 10 μM nocodazole, and 10 μM paclitaxel in the polymerization buffer. The OD at 340 nm was monitored every minute by SpectraMAX 250 and plotted against time. (b) Effect of stilbene 4c. (c) Comparison of same concentrations of stilbenes 4a, 4a trans, 4c and 4c trans with control. […] The radioactivity of the tubulin was counted. […] All experiments were done in triplicates.
Tubulin retained in the Microcon was washed three times with PBS. The radioactivity of the final concentrated tubulin was determined by a scintillation counter.

The test system of data set [2] is MDA-MB231 breast cancer cells. As to the kind of experiment: Alamar Blue cell growth inhibition, MDA-MB231. As to conditions: based on previous IC50 data. The class given is cell-based. A digest of the protocol:
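Cells at 50% confluence treated in triplicate for 48 hours with 0, 0.01, 0.03, 0.1, 0.3, 1.0, 3.0, 10 μM compound or 0.1% DMSO vehicle. Alamar Blue added at 1/10 volume for 2 hours, absorbance at 570 and 600 nm; percentage growth calculated against untreated cells using the extinction-coefficient formula.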
(In general: Resazurin is reduced to fluorescent resorufin, in cell work by metabolically active cells.)

In data set [3] the test system is UCI101 ovarian cancer cells. As to the kind of experiment: Alamar Blue cell growth inhibition, UCI101. In kind it is cell-based. Conditions: UCI101, 48 hours. Summed up:
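UCI101 cells at 50% confluence treated 48 h in triplicate with compound (0–10 μM series) or 0.1% DMSO vehicle as 100% control. Alamar Blue added at 1/10 volume for 2 h; absorbance read at 570 and 600 nm, percent growth inhibition from the manufacturer's formula.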

Data set [4] deals with c-kit-positive progenitor cells (engraftment). As to the kind of experiment: bone marrow transplantation of stilbene-treated progenitor cells. In kind it is in vivo, mice. Conditions: cells incubated at 0.1 or 0.5 μM for 16 hours. The method, then:
FIG. 16. (a) Effect of stilbenes in normal bone marrow progenitor cells. c-kit-positive bone marrow mononuclear cells were isolated for incubation with stilbenes 4a or 4c at 0.1 or 0.5 […] for 16 hours. Cells were harvested for fixation and PI staining. Cell cycle analysis and quantification of the subG0/1 population were analyzed by FACScan flow cytometry. The percentages of the apoptotic population were indicated. Shown are the representatives of two independent experiments. (b) Effect of stilbenes in HL60 cells as positive control. HL60 cells were treated with stilbenes 4a or 4c in the same medium as the positive control. (c) Colony forming assay of the stilbene-treated c-kit-positive cells. […] Cells were incubated for 14 days and the grossly visible colonies were counted. […] Mice were monitored for survival and lineage-specific donor engraftment by flow cytometry analysis of peripheral blood. […]
C57BL/6J (H2b, CD45.2) mice served as bone marrow donors and were between 6-10 weeks of age. […] Peripheral blood engraftment in recipient mice was assessed by flow cytometry analysis for CD3+ (145-2C11; BD Biosciences, San Jose, Calif.) T-cells, B220+ (RA3-6B2) B-cells, Mac1+ (M1/70.15) monocytes, and Gr1+ (8C5) granulocytes and distinguished between donor versus recipient with anti-CD45.1 (A20) and anti-CD45.2 (104) monoclonal antibodies.

Data set [5] is described as follows: acute toxicity in dose escalating study. As to conditions: 100 mg/kg intraperitoneally. In kind it is in vivo, mice. The method, then:
Acute toxicity in dose escalating study: We investigated the efficacy of stilbene 4a in vivo using mouse xenograft model. First we determined the maximal tolerated dose of stilbene 4a since it has a higher potency in vitro. […] Subsequently mice fully recovered 30 min after injection.

As to `COc1cc(/C=C\c2ccc(OC)c(N)c2)cc(OC)c1` [4a, (Z)-5-[2-(3,5-Dimethoxy-phenyl)-vinyl]-2-methoxy-phenylamine], the “competition with [3H]-colchicine for tubulin” value in data set [1] is recorded as “dose-dependent suppression of tubulin-colchicine interaction”. For the same compound, the “times less potent than CA4” value in data set [2] is 10. Further, the “relative potency / activity” value in data set [3] is reported as “about equal in their potency”. The “radioprotection of lethally irradiated mice by treated progenitor cells” value in data set [4] was “all mice were rescued from lethal irradiation”. Further, the “acute toxicity at 100 mg/kg intraperitoneally” value in data set [5] was “no sign of weakness was observed”.
